Assay results: patent publication US8895562B2, “Piperazin-1-yl-trifluoromethyl-substituted-pyridines as fast dissociating dopamine 2 receptor antagonists” (Janssen Pharmaceutica NV, priority 2008, dated 2014)
Counter-ions that a name gives are not always drawn. Like-named read-outs stand apart in the source and are kept apart here. Values belong to the compound of their own block, whether it stands above or below them.

Key:
[1] = molecular target: T1, human Dopamine D2L receptor (Homo sapiens, UniProt P14416); assay: In vitro binding affinity for human D2L receptor ([3H]spiperone); conditions: membranes of human D2L receptor-transfected CHO cells, read-out: D2L binding pIC50 (converted)
T1 construct: expressed in transfected cells; host or cells: CHO cells (membranes)
Source text: In order to find antipsychotic compounds active against positive and negative symptoms and cognitive impairment, and having an improved safety profile (low EPS incidence and no metabolic disorders), we have screened for compounds selectively interacting with the dopamine D2 receptor and dissociating fast from this receptor, and further having affinity for the dopamine D3 receptor as well as the serotonin 5-HT-6 receptor. Compounds were first screened for their D2 affinity in a binding assay using [^3H]spiperone and human D2L receptor cell membranes.
Frozen membranes of human Dopamine D2L receptor-transfected CHO cells were thawed, briefly homogenised using an Ultra-Turrax T25 homogeniser and diluted in Tris-HCl assay buffer containing NaCl, CaCl2, MgCl2, KCl (50, 120, 2, 1, and 5 mM respectively, adjusted to pH 7.7 with HCl) to an appropriate protein concentration optimised for specific and non-specific binding. Radioligand [^3H]Spiperone (NEN, specific activity ˜70 Ci/mmol) was diluted in assay buffer at a concentration of 2 nmol/L. Prepared radioligand (50 μl), along with 50 μl of either the 10% DMSO control, Butaclamol (10^−6 mol/l final concentration), or compound of interest, was then incubated (30 min, 37° C.) with 400 μl of the prepared membrane solution. Membrane-bound activity was filtered through a Packard Filtermate harvester onto GF/B Unifilterplates and washed with ice-cold Tris-HCl buffer (50 mM; pH 7.7; 6×0.5 ml). Filters were allowed to dry before adding scintillation fluid and counting in a Topcount scintillation counter. Percentage specific bound and competition binding curves were calculated using S-Plus software (Insightful).

human D2L receptor = molecular target: T2, human D2L receptor (Homo sapiens, UniProt P14416); assay: Fast dissociation, indirect assay ([3H]spiperone binding after pre-incubation with compound); conditions: compound at 4 times its IC50, 1 h pre-incubation at 25° C., then 5 min with 1 nM [3H]spiperone on filter
T2 construct: expressed in transfected cells
Method: Compounds were first screened for their D2 affinity in a binding assay using [^3H]spiperone and human D2L receptor cell membranes.
Compounds at a concentration of 4 times their IC50 were first incubated for one hour with human D2L receptor cell membranes in a volume of 2 ml at 25° C., then filtered over glass-fibre filter under suction using a 40 well multividor. Immediately after, the vacuum was released. 0.4 ml of pre-warmed buffer (25° C.) containing 1 nM [^3H]spiperone was added on the filter for 5 minutes. The incubation was stopped by initiating the vacuum and immediate rinsing with 2×5 ml of ice-cold buffer. The filter-bound radioactivity was measured in a liquid scintillation spectrometer. The principle of the assay is based on the assumption that the faster a compound dissociates from the D2 receptor, the faster [^3H]spiperone binds to the D2 receptor.

[2] = molecular target: T3, human Serotonin 5HT6 receptor (Homo sapiens, UniProt P50406); assay: In vitro binding affinity for human 5HT6 receptor ([3H]LSD)
T3 construct: expressed in transfected cells; host or cells: HEK cells (membranes)
Method: Frozen membranes of human Serotonin 5HT6 receptor-transfected HEK cells were thawed, briefly homogenized using an Ultra-Turrax T25 homogeniser and diluted in 50 mM Tris-HCl assay buffer containing 10 mM MgCl2, 1 mM EDTA and 10 μM Pargyline (adjusted to pH 7.4 with HCl) to an appropriate protein concentration optimized for specific and non-specific binding. Radioligand [^3H]Lysergic acid diethylamide (Perkin Elmer, specific activity ˜80 Ci/mmol) was diluted in assay buffer at a concentration of 20 nM. Radioligand (20 μl), along with 40 μl of either the 10% DMSO control, Methiothepine (10^−5M final concentration), or compound of interest, was then incubated with 70 μl of the prepared membrane solution and 70 μl of WGA coated PVT beads (0.25 mg/well final concentration). After shaking for 24 hours at RT plates were counted in a Topcount™ scintillation counter. Percentage specific binding and competition binding curves were calculated using S-Plus software (Insightful).

[3] = molecular target: T4, human Dopamine D3 receptor (Homo sapiens, UniProt P35462); assay: In vitro binding affinity for human D3 receptor ([125I]iodosulpride)
T4 construct: expressed in transfected cells; host or cells: CHO cells (membranes)
Method: Frozen membranes of human Dopamine D3 receptor-transfected CHO cells were thawed, briefly homogenized using an Ultra-Turrax T25 homogeniser and diluted in 50 mM Tris-HCl assay buffer containing 120 mM NaCl, 2 mM CaCl2, 1 mM MgCl2, 5 mM KCl and 0.1% BSA (adjusted to pH 7.4 with HCl) to an appropriate protein concentration optimized for specific and non-specific binding. Radioligand [^125I]Iodosulpride (Amersham, specific activity ˜2000 Ci/mmol) was diluted in assay buffer at a concentration of 2 nM. Prepared radioligand (20 μl), along with 40 μl of either the 10% DMSO control, Risperidone (10^−6M final concentration), or compound of interest, was then incubated with 70 μl of the prepared membrane solution and 70 μl of WGA coated PVT beads (0.25 mg/well final concentration). After shaking for 24 hours at RT plates were counted in a Topcount™ scintillation counter. Percentage specific binding and competition binding curves were calculated using S-Plus software (Insightful).

[4] = membranes of human 5HT6 receptor-transfected HEK cells, [3H]lysergic acid diethylamide, read-out: 5-HT6 binding pIC50 (converted)
[5] = membranes of human D3 receptor-transfected CHO cells, [125I]iodosulpride, read-out: D3 binding pIC50 (converted)

T3 sequence (P50406 whole entry): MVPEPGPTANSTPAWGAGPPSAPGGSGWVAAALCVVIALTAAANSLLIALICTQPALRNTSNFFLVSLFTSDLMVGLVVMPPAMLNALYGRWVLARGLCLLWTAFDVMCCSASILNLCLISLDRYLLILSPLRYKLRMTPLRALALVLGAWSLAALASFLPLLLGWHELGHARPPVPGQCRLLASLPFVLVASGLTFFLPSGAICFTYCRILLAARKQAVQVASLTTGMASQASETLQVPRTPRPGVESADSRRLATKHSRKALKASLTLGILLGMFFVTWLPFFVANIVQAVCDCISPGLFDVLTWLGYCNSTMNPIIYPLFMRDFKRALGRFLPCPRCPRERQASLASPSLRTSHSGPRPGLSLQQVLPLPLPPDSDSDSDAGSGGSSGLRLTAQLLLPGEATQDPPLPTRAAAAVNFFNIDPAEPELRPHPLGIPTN
T2 sequence (P14416 whole entry): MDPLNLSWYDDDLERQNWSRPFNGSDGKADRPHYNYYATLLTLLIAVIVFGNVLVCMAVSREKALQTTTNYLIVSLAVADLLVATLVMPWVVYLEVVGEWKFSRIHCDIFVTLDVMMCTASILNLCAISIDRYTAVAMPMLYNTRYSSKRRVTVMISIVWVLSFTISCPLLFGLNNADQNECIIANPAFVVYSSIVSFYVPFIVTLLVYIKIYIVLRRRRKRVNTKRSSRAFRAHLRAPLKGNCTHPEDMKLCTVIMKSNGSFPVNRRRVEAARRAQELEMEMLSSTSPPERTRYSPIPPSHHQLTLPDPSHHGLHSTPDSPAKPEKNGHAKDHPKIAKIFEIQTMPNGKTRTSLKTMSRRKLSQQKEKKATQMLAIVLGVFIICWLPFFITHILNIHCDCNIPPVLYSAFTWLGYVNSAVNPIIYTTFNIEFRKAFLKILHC
T1 sequence (P14416 whole entry): as above
T4 sequence (P35462 whole entry): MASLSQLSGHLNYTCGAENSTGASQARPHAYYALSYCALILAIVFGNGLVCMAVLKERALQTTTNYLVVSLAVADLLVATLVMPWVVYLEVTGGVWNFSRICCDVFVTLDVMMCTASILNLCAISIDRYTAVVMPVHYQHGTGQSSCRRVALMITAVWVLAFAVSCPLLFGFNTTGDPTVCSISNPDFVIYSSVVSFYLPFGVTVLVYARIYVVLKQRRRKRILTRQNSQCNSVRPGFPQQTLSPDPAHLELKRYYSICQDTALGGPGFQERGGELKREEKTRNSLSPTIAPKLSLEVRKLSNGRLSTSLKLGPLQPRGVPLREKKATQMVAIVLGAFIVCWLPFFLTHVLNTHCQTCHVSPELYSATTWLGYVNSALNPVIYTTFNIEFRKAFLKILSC

SMILES: N#Cc1nc(N2CCNCC2)cc(-c2ccccc2)c1C(F)(F)F (as salt: salt) [Example B2, 4-Phenyl-6-piperazin-1-yl-3-trifluoromethyl-pyridine-2-carbonitrile]
melting point: 255.3 °C

SMILES: COc1nc(C(F)(F)F)c(-c2ccccc2)cc1N1CCNCC1 (as salt: salt) [Example B5, 1-(2-Methoxy-5-phenyl-6-trifluoromethyl-pyridin-3-yl)-piperazine]
melting point: 184.8 °C

IC50 [1]: 7940 nM
D2 dissociation ([3H]spiperone binding as % of total binding capacity) (human D2L receptor): 83%
IC50 [2, 4]: 224 nM
IC50 [3, 5]: 2090 nM
SMILES: COc1nc(C(F)(F)F)c(-c2ccc(F)cc2)cc1N1CCN(C(=O)OC(C)(C)C)CC1 [Example A16, 4-[5-(4-Fluoro-phenyl)-2-methoxy-6-trifluoromethyl-pyridin-3-yl]-piperazine-1-carboxylic acid tert-butyl ester]

SMILES: Fc1ccc(-c2cc(N3CCNCC3)ncc2C(F)(F)F)cc1 [Example B1, 1-[4-(4-Fluoro-phenyl)-5-trifluoromethyl-pyridin-2-yl]-piperazine]
IC50 [1]: 3890 nM
IC50 [2, 4]: 123 nM
melting point: 80.6 °C

SMILES: N#Cc1nc(N2CCNCC2)cc(-c2ccccc2)c1C(F)(F)F [Example B2, 4-Phenyl-6-piperazin-1-yl-3-trifluoromethyl-pyridine-2-carbonitrile]
IC50 [1]: 129 nM
D2 dissociation ([3H]spiperone binding as % of total binding capacity) (human D2L receptor): 60%
IC50 [2, 4]: 8.13 nM
IC50 [3, 5]: 10.7 nM

SMILES: COc1nc(N2CCNCC2)cc(-c2ccccc2)c1C(F)(F)F [Example B3, 1-(6-Methoxy-4-phenyl-5-trifluoromethyl-pyridin-2-yl)-piperazine]
IC50 [1]: 229 nM
D2 dissociation ([3H]spiperone binding as % of total binding capacity) (human D2L receptor): 45%
IC50 [2]: 18.6 nM
IC50 [3]: 46.8 nM

SMILES: FC(F)(F)c1ncc(N2CCNCC2)cc1-c1ccccc1 [Example B4, 1-(5-Phenyl-6-trifluoromethyl-pyridin-3-yl)-piperazine]
IC50 [1]: 479 nM
D2 dissociation ([3H]spiperone binding as % of total binding capacity) (human D2L receptor): 69%
IC50 [2, 4]: 138 nM
IC50 [3]: 33.9 nM

SMILES: COc1nc(C(F)(F)F)c(-c2ccccc2)cc1N1CCNCC1 [Example B5, 1-(2-Methoxy-5-phenyl-6-trifluoromethyl-pyridin-3-yl)-piperazine]
IC50 [1]: 204 nM
D2 dissociation ([3H]spiperone binding as % of total binding capacity) (human D2L receptor): 66%
IC50 [2, 4]: 93.3 nM

SMILES: COc1nc(C(F)(F)F)c(-c2ccc(F)cc2)cc1N1CCNCC1 [Example B6, 1-[5-(4-Fluoro-phenyl)-2-methoxy-6-trifluoromethyl-pyridin-3-yl]-piperazine]
IC50 [1]: 468 nM
IC50 [2, 4]: 129 nM

SMILES: N#Cc1nc(C(F)(F)F)c(-c2ccccc2)cc1N1CCNCC1 [Example B7, 5-Phenyl-3-piperazin-1-yl-6-trifluoromethyl-pyridine-2-carbonitrile]
IC50 [1]: 3390 nM
IC50 [2, 4]: 309 nM
IC50 [3, 5]: 372 nM

SMILES: Cc1nc(C(F)(F)F)c(-c2ccccc2)cc1N1CCNCC1 [Example B8, 1-(2-Methyl-5-phenyl-6-trifluoromethyl-pyridin-3-yl)-piperazine]
IC50 [1]: 4790 nM
D2 dissociation ([3H]spiperone binding as % of total binding capacity) (human D2L receptor): 95%
IC50 [2, 4]: 170 nM
IC50 [3, 5]: 2090 nM
